Reference: patent US12268739B2, “Use of toll-like receptor 2 (TLR-2) agonist for modulating human immune response” (Children's Medical Center Corporation, priority 2018, dated 2025)
Entries after “also recorded” stand apart in the source; their conditions may differ.

Experiments:
[1] = tested on: NF-κB reporter THP1 cells; assay: NF-kB-induced luminescence HTS in THP1-Lucia cells (384-well); format: cell-based, human; details: ranked at 3.3 μM; ~200,000 compounds tested; listed as 080
Description: HTS Overview: To identify immunomodulators/adjuvants that robustly activate human immune cells, ˜200,000 small molecules were screening in a THP1 cell-based assay. The chemical libraries screened included known bioactive and commercial libraries from various sources including commercial libraries such as ChemDiv, ChemBridge, and Asinex. All libraries were owned and provided by the Institute of Chemistry and Cell Biology (ICCB)—Longwood (Harvard Medical School). The project primary screen incorporated two distinct arms: a) a luciferase-based screen which corresponds to the relative activation of the NF-κB reporter; and b) a fluorescence-based screen, corresponding to the phenotypic adherence, a distinct marker of cell activation, of the human monocytic THP-1 cell lines. Described herein are small molecules identified in the screen that induce NF-kB activity based on a luciferase-based THP-1 cell screen.
THP-1 Cell Line and Culture Conditions. The THP1-Lucia™ cell line was obtained from Invivogen (San Diego, CA). THP1-Lucia cells, which are human monocytic cells derived from the blood of a child with leukemia, contain an NF-kB-inducible Luc reporter construct. This allows NF-kB activation to be measured by quantifying the luminescence from the secreted luciferase enzyme. THP1-Lucia cells were cultured in RPMI 1640 supplemented with 10% non-heat inactivated fetal bovine serum (FBS), 10 mM HEPES, 1.0 mM sodium pyruvate, 50 ug/ml Pen-Strep, and 100 ug/mL Normocin™. Once cultured, the cells were stored in a 37° C. incubator with 5% CO2 and a humidified atmosphere. Cells were passaged every 2-3 days and not allowed to exceed a concentration of 2.0×10^6 cells/ml media.
NF-kB-induced Luminescence Assay. THP1-Lucia cells between passage 15 and 18 and suspended in culture medium were dispensed into 384-well black clear-bottom plates (Corning 3712) at 30,000 cells/30 μl/well using a Combi liquid dispenser. To allow comparison to a benchmark small molecule with known immune stimulating activity, cells at the same concentration were stimulated with 50 μM R848, a TLR7/8 agonist, in 0.3% DMSO and added to every other well of column 24, which was left empty of cells, by multichannel pipette at the same volume. Five μl of 700 nM Phorbol myristate acetate (PMA) in THP1 culture media and 2.3% DMSO, a known peripheral blood cell mitogen, was added to every other well of column 23 by multichannel pipette (final concentration in well: 100 nM in 0.3% DMSO). Five μl of THP1 culture media with 2.3% DMSO was added to the remaining wells of column 23 by multichannel pipette (final concentration 0.3% DMSO). One hundred nl aliquots of library compounds diluted in 100% DMSO were transferred from their original 384-well plates to the assay plates using a Seiko pin transfer machine. Each library plate was pinned in duplicate, yielding two assay plates with identical conditions for comparison. Plates were then incubated for 24 hours at 37 C with 5% CO2 in humid conditions. Following incubation, 10 μL of supernatant was removed from each well and transferred to a white plate (Corning 3570) using a Vprep liquid transfer machine. 10 μL of recombinant Lucia protein (Invivogen) diluted 1:2000 in THP1 culture media was added to empty well 24P. Using a Combi liquid dispenser, 50 μL/well of Quanti-Luc substrate (Invivogen) diluted 1:3 in sterile water was added to the assay plate. Immediately after adding the substrate, the luminescence was read using a PerkinElmer Envision plate reader.

human TLR8 = molecular target: T1, human TLR8 (Homo sapiens, UniProt Q9NR97); assay: HEK293 assay for human TLR8 selectivity (NF-κB/SEAP); format: cell-based; details: selectivity counter-assay
T1 construct: host or cells: HEK293 cells with an NF-kB-responsive SEAP reporter gene
T1 sequence (Q9NR97 27-1041): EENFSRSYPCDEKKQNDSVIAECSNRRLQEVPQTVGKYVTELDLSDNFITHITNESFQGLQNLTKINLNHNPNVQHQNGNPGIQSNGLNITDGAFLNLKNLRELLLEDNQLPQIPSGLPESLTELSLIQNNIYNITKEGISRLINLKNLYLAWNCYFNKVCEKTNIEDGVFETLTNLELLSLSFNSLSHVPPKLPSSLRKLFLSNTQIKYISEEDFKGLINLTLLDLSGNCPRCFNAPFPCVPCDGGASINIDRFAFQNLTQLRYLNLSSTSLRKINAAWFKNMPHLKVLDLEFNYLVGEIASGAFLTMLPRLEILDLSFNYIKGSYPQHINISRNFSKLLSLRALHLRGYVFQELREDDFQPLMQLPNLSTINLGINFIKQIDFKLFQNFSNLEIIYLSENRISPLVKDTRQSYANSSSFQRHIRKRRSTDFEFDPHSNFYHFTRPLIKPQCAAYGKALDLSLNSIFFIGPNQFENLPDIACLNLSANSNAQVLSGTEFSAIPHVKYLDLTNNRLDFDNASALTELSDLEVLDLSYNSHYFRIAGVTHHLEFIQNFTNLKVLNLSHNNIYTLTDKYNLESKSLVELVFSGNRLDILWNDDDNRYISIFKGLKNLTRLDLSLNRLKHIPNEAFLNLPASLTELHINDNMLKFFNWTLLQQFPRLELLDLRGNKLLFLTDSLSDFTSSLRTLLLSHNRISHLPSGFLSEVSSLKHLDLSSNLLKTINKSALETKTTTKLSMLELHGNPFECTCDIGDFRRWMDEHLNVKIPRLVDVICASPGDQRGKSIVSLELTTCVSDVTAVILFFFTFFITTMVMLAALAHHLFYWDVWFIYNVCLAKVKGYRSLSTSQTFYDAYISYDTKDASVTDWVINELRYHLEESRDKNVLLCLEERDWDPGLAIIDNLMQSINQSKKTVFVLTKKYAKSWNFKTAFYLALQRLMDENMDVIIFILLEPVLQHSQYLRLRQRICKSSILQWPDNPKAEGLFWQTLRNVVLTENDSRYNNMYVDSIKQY
Procedure: HEK293 assay for human TLR2 and TLR8 selectivity: Human embryonic kidney (HEK) 293 cells expressing human TLR2 or TLR8 with an NF-κB-responsive secreted embryonic alkaline phosphatase (SEAP) reporter gene were obtained from Invivogen (San Diego, CA). Cells were maintained in RPMI or DMEM with 10% heat inactivated-FBS and selection antibiotics per the manufacturer's instructions. Cells were plated at 5×10^5 cells/96-well and stimulated with indicated agonist(s) for 24 hours. Supernatants were harvested and analyzed for NF-κB/SEAP activation using the QuantiBlue kit (Invivogen). Values are expressed as fold change in OD650 over vehicle-only treated samples.

Compound: CNC(=O)c1c(NC(=O)c2ccc(S(=O)(=O)N(C)C)cc2)sc2c1CCC2 [Compound 80]
- Efficacy in activating NF-κB in THP1 cells (screening hits) [1]: most effective NF-κB activators; also recorded: most effective NF-kB activators
- TLR8 induction in HEK TLR8 cells (SEAP) (human TLR8): without induction of TLR8
